We go through 10 compounds from PubChem BioAssay (NCI).

Among the test systems are SK-OV-3 ovarian; COLO 205 colon; SK-MEL-2 melanoma; OVCAR-4 ovarian; HCT-116 colon; SR leukemia; 786-0 renal; HOP-92 NSCLC; DLD-1 colon; DMS 114 small cell lung; SNB-78 CNS.
Common to all, as to assay: DTP human tumour cell line panel, 48 h

“And” between values parts separate entries of the source, which are not always exact repeats. Equal entries are not always repeated.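 Briefly, cells in 96-well plates were exposed to five compound concentrations for 48 h, and endpoints were estimated by linear interpolation. GI50: concentration for 50% inhibition of growth. TGI denotes the concentration required for complete inhibition of growth.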

For orientation: GI50 means the concentration at which growth is held to half of that of the control. As usually defined, the TGI is the concentration giving total growth inhibition. The low end stands for more potent growth arrest, the high end for less potent growth arrest. Consider `COc1cc(-c2cc(/C=C/C(=O)c3ccc(Cl)c(Cl)c3)[nH]n2)cc(OC)c1OC`, for which the GI50 in the test with SK-OV-3 ovarian is 4.19 µM; with COLO 205 colon, 1.26 µM; with SK-MEL-2 melanoma, 13.9 µM; with OVCAR-4 ovarian, 10.8 µM; in the test on HCT-116 colon it was 2.95 µM; with SR leukemia it was 0.393 µM. In addition, the GI50 is 10.1 µM in the test on 786-0 renal and 2.53 µM with HOP-92 NSCLC. In addition, the TGI is 18.8 µM in the test with SK-OV-3 ovarian; 15.8 µM in the test with COLO 205 colon; 34.1 µM in the test with SK-MEL-2 melanoma; 50.9 µM with OVCAR-4 ovarian; 21.5 µM with HCT-116 colon; 13.5 µM in the test with SR leukemia. Moreover, the TGI was 68 µM in the test with 786-0 renal and 8.25 µM in the test with HOP-92 NSCLC.
As for `COC(=O)N/N=C(/CCC(=O)Nc1ccc(C)c(C)c1)CC(=O)C(C)(C)C`, the TGI in the test on DLD-1 colon, in the test with SK-OV-3 ovarian, in the test with COLO 205 colon, in the test with SK-MEL-2 melanoma, in the test on OVCAR-4 ovarian and with DMS 114 small cell lung was above 100 µM throughout. Moreover, the TGI with 786-0 renal was above 100 µM.
For the compound `O=[N+]([O-])c1ccccc1C=NC12CC3CC(CC(C3)C1)C2`, the TGI in the test with DLD-1 colon, with SK-OV-3 ovarian, in the test with COLO 205 colon, with SK-MEL-2 melanoma, in the test on SNB-78 CNS and with OVCAR-4 ovarian was above 100 µM in each case. Moreover, the TGI in the test on HCT-116 colon, in the test with 786-0 renal and with HOP-92 NSCLC was above 100 µM in each case.
On to `CCOC(=O)c1c(C)nc2c(c1N)CC(=O)N2CCc1ccccc1`, for which the GI50 with SK-OV-3 ovarian was 8.46 µM; with COLO 205 colon, 0.518 µM; in the test on SK-MEL-2 melanoma, 0.53 µM; in the test on OVCAR-4 ovarian it was 1.48 µM; in the test on HCT-116 colon, 0.32 µM; with SR leukemia, 0.444 µM. The results for the GI50 in the test with 786-0 renal and with HOP-92 NSCLC were 0.466 µM and 0.496 µM, respectively. The TGI in the test on SK-OV-3 ovarian was found to be 36.7 µM; in the test with COLO 205 colon, 13.6 µM; with SK-MEL-2 melanoma, 6.8 µM; in the test on OVCAR-4 ovarian, 3.26 µM; in the test on HCT-116 colon, 11.2 µM; in the test with SR leukemia it was 28.1 µM. Besides, the total growth inhibition concentration (TGI) with 786-0 renal was 17.1 µM; in the test on HOP-92 NSCLC, 18.7 µM.
On to `Cc1cc(C(=O)O)c(C)n1-c1cccc(C(=O)O)c1`, for which the GI50 with SK-OV-3 ovarian, in the test on COLO 205 colon, with SK-MEL-2 melanoma, in the test with OVCAR-4 ovarian, with HCT-116 colon and with SR leukemia was above 100 µM throughout. Moreover, the GI50 with 786-0 renal and with HOP-92 NSCLC was above 100 µM each time. For the same compound, the TGI in the test on SK-OV-3 ovarian, with COLO 205 colon, in the test on SK-MEL-2 melanoma, in the test with OVCAR-4 ovarian, in the test on HCT-116 colon and in the test on SR leukemia was above 100 µM each time. The TGI in the test with 786-0 renal and in the test on HOP-92 NSCLC was above 100 µM in each case.
Turning to `C[n+]1c(-c2ccc(/C=N/NC(=O)c3ccc(C(=O)N/N=C/c4ccc(-c5cn6ccccc6[n+]5C)cc4)cc3)cc2)cn2ccccc21`, the GI50 was 281 µM in the test on SK-OV-3 ovarian; above 1000 µM with COLO 205 colon; 270 µM with SK-MEL-2 melanoma; 623 µM with OVCAR-4 ovarian; above 1000 µM in the test on HCT-116 colon; 126 µM in the test with 786-0 renal. Also, the GI50 in the test with HOP-92 NSCLC was 198 µM. Besides, the TGI in the test on SK-OV-3 ovarian was 494 µM; in the test on COLO 205 colon, above 1000 µM; in the test on SK-MEL-2 melanoma it was 498 µM; in the test with OVCAR-4 ovarian, above 1000 µM; in the test on HCT-116 colon it was above 1000 µM; in the test on SR leukemia, 218 µM. Further, the TGI is 53.7 µM and 252 µM in the test with 786-0 renal; 362 µM in the test on HOP-92 NSCLC.
With `N=C(N)c1ccc(NCCOCCNc2ccc(C(=N)N)cc2)cc1`, the GI50 in the test with SK-OV-3 ovarian was 7.86 µM; with COLO 205 colon it was 14.9 µM; in the test on SK-MEL-2 melanoma it was 51.6 µM; with OVCAR-4 ovarian it was 34.1 µM; with HCT-116 colon, 49.4 µM; in the test on SR leukemia, 49 µM. For the same compound, the GI50 with 786-0 renal is above 100 µM; with HOP-92 NSCLC, 15.4 µM. In addition, the TGI in the test with SK-OV-3 ovarian is 51.7 µM; in the test with COLO 205 colon, 39.5 µM; in the test with SK-MEL-2 melanoma, above 100 µM; in the test with OVCAR-4 ovarian, above 100 µM; with HCT-116 colon, above 100 µM; in the test with SR leukemia, above 100 µM. In addition, the TGI in the test with 786-0 renal was above 100 µM; with HOP-92 NSCLC it was 59.8 µM.
In the case of `CC(=O)C1=C(C)N(C)C2(O)C=CC(=O)C3=C(O)c4ccccc4C(=O)C312` (stereo unspecified), the GI50 is 6.9 µM with SK-OV-3 ovarian; 13.8 µM in the test with COLO 205 colon; 30.6 µM with SK-MEL-2 melanoma; 17.1 µM with OVCAR-4 ovarian; 2.77 µM with HCT-116 colon; above 100 µM in the test with SR leukemia. Moreover, the results for the GI50 in the test with 786-0 renal and in the test with HOP-92 NSCLC were 2.59 µM and 2.61 µM, respectively. The TGI in the test with SK-OV-3 ovarian is 32.4 µM; in the test on COLO 205 colon, 38 µM; in the test with SK-MEL-2 melanoma, above 100 µM; in the test on OVCAR-4 ovarian, 34.2 µM; with HCT-116 colon, 7.09 µM; with SR leukemia, above 100 µM. In addition, the TGI with 786-0 renal turned out to be 7.36 µM; with HOP-92 NSCLC, 8.48 µM.
In the case of `CC1(C)C(=O)/C=C\C(=O)C(C)(C)C(=O)/C=C\C(=O)C(C)(C)C(=O)/C=C\C(=O)C(C)(C)C(=O)/C=C\C1=O`, the TGI in the test on DLD-1 colon was 30.1 µM; in the test on SK-OV-3 ovarian, above 96.1 µM; with COLO 205 colon it was 33.2 µM; in the test with SK-MEL-2 melanoma, 47.5 µM; in the test on SNB-78 CNS, 50 µM; in the test with OVCAR-4 ovarian it was 53.1 µM. Also, the TGI in the test with HCT-116 colon is 30.8 µM; in the test with SR leukemia it was 27.8 µM; in the test with 786-0 renal, 49.1 µM; with HOP-92 NSCLC, 29.1 µM.
In the case of `CCC(=O)Nc1ccccc1C#C/C=C\C#Cc1ccccc1C(F)(F)F`, the GI50 in the test on SK-OV-3 ovarian was 1.7 µM; with COLO 205 colon, 4.59 µM; in the test on SK-MEL-2 melanoma, 0.631 µM; in the test with OVCAR-4 ovarian, 14.6 µM; in the test with HCT-116 colon it was 2.81 µM; in the test with SR leukemia, 0.386 µM. In addition, the GI50 was 2.37 µM in the test on 786-0 renal and 3.01 µM in the test with HOP-92 NSCLC. For the same compound, the TGI is above 50 µM in the test with SK-OV-3 ovarian; above 25.9 µM in the test on COLO 205 colon; above 11.1 µM with SK-MEL-2 melanoma; above 50 µM in the test with OVCAR-4 ovarian; 25.8 µM in the test with HCT-116 colon; 23.2 µM in the test on 786-0 renal. The TGI with HOP-92 NSCLC is above 36.1 µM.
